Measured values reported in publication PMC7614687, “Modulation of the substrate specificity of the kinase PDK1 by distinct conformations of the full-length protein*” (Science signaling, 2023).
Where “and” joins values, the source holds several entries; their conditions need not be identical. Equal values may be shown once. Entries after “also recorded” stand apart in the source; their conditions may differ. Read-outs that look alike come from different tables or passages of the source.

What was measured:
[1] = target: T1, His-PDK1_1-556 and GST-PDK1_360-556 (Homo sapiens, UniProt O15530); experiment: AlphaScreen PDK1 dimerization assay His-PDK1_1-556 / GST-PDK1_360-556; format: binding
T1 construct: made in house; host or cells: Sf9 insect cells (His-PDK1_1-556); HEK293 cells (GST-PDK1_360-556)
T1 sequence (O15530 1-556): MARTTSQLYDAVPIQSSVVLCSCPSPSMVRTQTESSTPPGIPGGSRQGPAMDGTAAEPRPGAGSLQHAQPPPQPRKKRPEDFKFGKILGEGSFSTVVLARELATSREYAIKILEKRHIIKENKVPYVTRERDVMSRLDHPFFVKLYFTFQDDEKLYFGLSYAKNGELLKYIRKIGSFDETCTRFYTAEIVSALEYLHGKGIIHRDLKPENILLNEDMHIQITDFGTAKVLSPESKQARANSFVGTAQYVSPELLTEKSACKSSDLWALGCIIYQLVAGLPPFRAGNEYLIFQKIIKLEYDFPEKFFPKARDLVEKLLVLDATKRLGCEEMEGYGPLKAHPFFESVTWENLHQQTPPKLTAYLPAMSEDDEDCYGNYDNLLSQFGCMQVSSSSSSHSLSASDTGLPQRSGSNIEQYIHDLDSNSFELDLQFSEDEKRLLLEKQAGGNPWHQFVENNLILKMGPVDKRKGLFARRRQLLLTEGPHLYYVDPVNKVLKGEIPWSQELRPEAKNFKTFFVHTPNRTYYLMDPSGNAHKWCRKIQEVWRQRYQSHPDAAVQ
Experimental: (§1) The AlphaScreen® assay was performed following the general guidelines from the manufacturer (Perkin Elmer) ([29]). In short, the assay was performed in a final volume of 25 μl in white 384-well microtiter plates (Greiner) in a standard buffer containing 50 mM Tris-HCl (pH 7.4), 100 mM NaCl, 2 mM DTT, 0.01% (v/v) Tween-20 and 0.1% (w/v) BSA, with the addition of 5 μl of beads (anti-GST coated acceptor beads and streptavidin-coated donor beads; nickel chelate-coated acceptor beads and streptavidin-coated donor beads; or nickel chelate-coated acceptor beads and GSH-coated donor beads, 20 μg/ml final concentrations for each bead type). AlphaScreen assays for His-tagged proteins and GST-fusion proteins were performed using nickel chelate-coated acceptor beads and GSH-coated donor beads; alphascreen assays for His-tagged proteins and biotinylated molecules were performed using nickel chelate-coated acceptor beads and streptavidin-coated donor beads; alphascreen assays for GST-fusion proteins and biotinylated molecules were performed using anti-GST coated acceptor beads and streptavidin-coated donor beads (Perkin Elmer).
The conditions for each AlphaScreen assay were identified in cross-titration experiments for each interaction to choose the ideal pair of concentrations within the linear range of the interactions. […] His-PDK1 and GST-fusion protein in the presence or absence of the different compounds were incubated in the dark for 60 min at room temperature and the emission of light from the acceptor beads was measured in an EnVision reader (Perkin Elmer) or Spark plate reader (Tecan). […]

PDK1_1-556 = target: T2, PDK1_1-556 (Homo sapiens, UniProt O15530); experiment: Differential scanning fluorimetry, thermal stability of PDK1_1-556; format: binding; conditions: PDK1 1 μM
T2 construct: effect of HYG8 on the thermal stability (ΔTm) of PDK1_1-556 (H) and PDK1_50-359 (I); His (N); made in house; host or cells: Sf9 insect cells (baculovirus)
T2 sequence (O15530 1-556): T1 sequence (O15530 1-556)
Experimental: The thermal stability of PDK1 was assessed by monitoring the unfolding of PDK1 by the increase in the fluorescence of SYPRO Orange (Invitrogen) using a real-time PCR device (StepOnePlus, Applied Biosystems and BioRad CFX96) following a previously described protocol ([70]). The reactions were performed in a final volume of 10 μl in white 96-well PCR microtiter plates (Greiner) and contained 1 μM PDK1, 10 mM HEPES (pH 7.5), 150 mM NaCl, 1/1000 SYPRO Orange and 1 mM dithiothreitol. For valsartan, the assay buffer was modified to exclude NaCl. PIFtide or compounds (at a final DMSO concentration of 1%) were added to this reaction mixture. The temperature gradient was performed in steps of 0.3 °C in the range from 25 to 70 °C. To calculate the Tm values, data were exported to GraphPad Prism and curves fitted to a Boltzmann sigmoidal equation with an acceptable confidence interval of 95%. Statistical analysis was performed with Infostat software (http://www.infostat.com.ar) and GraphPad Prism by first verifying a normal distribution of pooled residuals (Shapiro-Wilks test) and homogeneity of variance (F test), and then performing a one-way ANOVA followed by the post hoc comparisons test indicated in each figure legend.

PDK1 = target: T3, PDK1 (Homo sapiens, UniProt O15530); experiment: Thermo Fisher "PDK1 Direct" assay (peptide Ser/Thr 07, FRET readout); format: biochemical; conditions: for times less potent inhibitors than HYG7, HYG8 and HYG14: PDK1 Direct assay IC50 comparison
T3 sequence (O15530 1-556): T1 sequence (O15530 1-556)

GST-PDK1_1-556 = target: T4, GST-PDK1_1-556 (Homo sapiens, UniProt O15530); experiment: AlphaScreen GST-PDK1_1-556 / biotin-PIFtide interaction; format: binding
T4 construct: made in house; host or cells: HEK293 cells (transient transfection of pEBG2T); peptide synthesized by Pepscan
T4 sequence (O15530 1-556): T1 sequence (O15530 1-556)
Experimental: as §1
The interaction between GST-PDK1_1-556 and biotin-PIFtide was performed as described previously ([29], [32]) in the standard buffer, but the bead concentration was lowered to 15 μg/ml.

[2] = absence of PIFtide, read-out: IC50 (nM), displacement of His-PDK1_1-556 interaction with GST-PDK1_360-556
[3] = with PIFtide, read-out: IC50 (nM), displacement of His-PDK1_1-556 interaction with GST-PDK1_360-556 with PIFtide
[4] = replicate point 1, read-out: % Inhibition Point 1
[5] = replicate point 2, read-out: % Inhibition Point 2
[6] = single point, N=2, read-out: Inhibition at 1 μM (%)

CC(C)C(NCc1ccc(-c2ccccc2-c2nnn[nH]2)cc1)C(=O)O (stereo not drawn) [Des(oxopentyl) valsartan, des(oxopentyl)valsartan, reference compound]
effect on PDK1 dimer formation [1]: did not disrupt PDK1 dimers

CNc1nc(-c2ccc3c(N)n[nH]c3c2)cc(N2C[C@@H](C(=O)NC3CCCCC3)CC[C@H]2C)n1 [GSK2334470]
effect on PDK1 dimer formation [1]: None of these compounds affected the dimerization

CC(=O)O[C@H]1[C@@H](OP(=O)(O)O)[C@H](OP(=O)(O)O)[C@@H](OP(=O)(O)O)[C@H](OP(=O)(O)O)[C@H]1OP(=O)(O)O [HYG6, 2-O-acetyl-IP5]
Tm (°C), temperature stabilization of PDK1_1-556 (PDK1_1-556; compound 1 µM): 7.8 °C
Tm (°C), temperature stabilization of PDK1_1-556 (PDK1_1-556; compound 20 µM): 9.9 °C
IC50 [1, 2]: 27 nM
IC50 [1, 3]: 17.9 nM
inhibition at 1 µM (PDK1; [4]): 53%
inhibition at 1 µM (PDK1; [5]): 64%
inhibition at 1 µM (PDK1; [6]): 59%
Hill slope, PDK1 direct (PDK1; 10-point titration): 1.11
IC50 (PDK1; 10-point titration): 449 nM
times less potent inhibitors than HYG7, HYG8 and HYG14 (PDK1): 15 to 36 times

CCCC(=O)O[C@H]1[C@@H](OP(=O)(O)O)[C@H](OP(=O)(O)O)[C@@H](OP(=O)(O)O)[C@H](OP(=O)(O)O)[C@H]1OP(=O)(O)O [HYG7, 2-O-butyryl-IP5]
Tm (°C), temperature stabilization of PDK1_1-556 (PDK1_1-556; compound 1 µM): 12.6 °C and 11-15 °C
Tm (°C), temperature stabilization of PDK1_1-556 (PDK1_1-556; compound 20 µM): 14.5 °C and 13-16 °C
IC50 [1, 2]: 22.6 nM
IC50 [1, 3]: 22.7 nM
inhibition at 1 µM (PDK1; [4]): 101%
inhibition at 1 µM (PDK1; [5]): 99%
inhibition at 1 µM (PDK1; [6]): 100%
Hill slope, PDK1 direct (PDK1; 10-point titration): 1.39
IC50 (PDK1; 10-point titration): 29 nM

O=P(O)(O)OC1[C@H](O)[C@H](OP(=O)(O)O)C(OP(=O)(O)O)[C@H](OP(=O)(O)O)[C@H]1O (stereo partly drawn) [IP4, inositol-1,3,4,5-tetrakisphosphate, reference compound]
effect on PDK1-PIFtide interaction (GST-PDK1_1-556): did not enhance binding to PIFtide

O=P(O)(O)O[C@@H]1[C@@H](OP(=O)(O)O)[C@H](OP(=O)(O)O)[C@H](O)[C@H](OP(=O)(O)O)[C@H]1OP(=O)(O)O [IP5, inositol-1,3,4,5,6-pentaphosphate, reference compound]
Tm (°C), temperature stabilization of PDK1_1-556 (PDK1_1-556; compound 1 µM): 5.3 °C
Tm (°C), temperature stabilization of PDK1_1-556 (PDK1_1-556; compound 20 µM): 11.9 °C
IC50 [1, 2]: 67 nM
IC50 [1, 3]: 59.4 nM
inhibition at 1 µM (PDK1; [4]): 63%
inhibition at 1 µM (PDK1; [5]): 69%
inhibition at 1 µM (PDK1; [6]): 66%
Hill slope, PDK1 direct (PDK1; 10-point titration): 1.33
IC50 (PDK1; 10-point titration): 577 nM
times less potent inhibitors than HYG7, HYG8 and HYG14 (PDK1): 15 to 36 times

O=P(O)(O)O[C@H]1[C@H](OP(=O)(O)O)[C@@H](OP(=O)(O)O)[C@H](OP(=O)(O)O)[C@@H](OP(=O)(O)O)[C@H]1OP(=O)(O)O [IP6, inositol hexakisphosphate, reference compound]
Tm (°C), temperature stabilization of PDK1_1-556 (PDK1_1-556; compound 1 µM): 6.2 °C
Tm (°C), temperature stabilization of PDK1_1-556 (PDK1_1-556; compound 20 µM): 9.0 °C
IC50 (nM), displacement of His-PDK1_1-556 interaction with GST-PDK1_360-556 ([1]; absence of PIFtide): Does not reach complete displacement; also recorded: no displacement
IC50 (nM), displacement of His-PDK1_1-556 interaction with GST-PDK1_360-556 with PIFtide ([1]; with PIFtide): Does not reach complete displacement
inhibition at 1 µM (PDK1; [4]): 8%
inhibition at 1 µM (PDK1; [5]): 7%
inhibition at 1 µM (PDK1; [6]): 8%
Hill slope, PDK1 direct (PDK1; 10-point titration): –2.18
IC50 (PDK1; 10-point titration): > 10000 nM
IC50 (nM), PDK1 direct (PDK1; 10-point titration): inactive

O=C(CC(c1ccccc1)C(C(=O)O)C(=O)O)c1ccc(C(F)(F)F)cc1 (stereo not drawn) [PS210]
effect on PDK1 dimer formation [1]: None of these compounds affected the dimerization

CN[C@@H]1C[C@H]2O[C@@](C)([C@@H]1OC)n1c3ccccc3c3c4c(c5c6ccccc6n2c5c31)C(=O)N[C@H]4O [UCN01]
effect on PDK1 dimer formation [1]: do not affect the formation of PDK1 dimers

Nc1ncnc2[nH]cnc12 [adenine]
effect on PDK1 dimer formation [1]: do not affect the formation of PDK1 dimers

O=P(O)(O)O[C@@H]1[C@@H](OP(=O)(O)O)[C@H](OP(=O)(O)O)[C@@H](O)[C@H](OP(=O)(O)O)[C@H]1OP(=O)(O)O [scyllo-IP5, reference compound]
Tm (°C), temperature stabilization of PDK1_1-556 (PDK1_1-556; compound 1 µM): 4.7 °C
Tm (°C), temperature stabilization of PDK1_1-556 (PDK1_1-556; compound 20 µM): 7.3 °C
IC50 [1, 2]: 124 nM
IC50 [1, 3]: 140 nM
inhibition at 1 µM (PDK1; [4]): -8%
inhibition at 1 µM (PDK1; [5]): -10%
Inhibition at 1 μM (%) (PDK1; single point, N=2): -9%
Inhibition at 1 μM (%) (PDK1; single point, N=2, listed as Scyllo-IP5, 1 µM): ≤ 10%

REPRILSEEEQEMFRDFDYIADWS [PIFtide, peptide derived from the PRK2 HM (a PDK1 substrate)]
effect on PDK1 dimer formation [1]: no effect on dimer formation
